Measured values reported in patent publication US20060276393A1, “Novel compositions for preventing and treating neurodegenerative and blood coagulation disorders” (Sirtris Pharmaceuticals, Inc., priority 2005, published 2006).
Entries after “also recorded” stand apart in the source; their conditions may differ.

What was measured:
recombinant human SIRT1 = target: T1, recombinant human SIRT1 (Homo sapiens, UniProt Q96EB6); assay: SIRT1 fluorescent deacetylation assay (p53-382 acetylated peptide); assay type: biochemical; conditions: 25 μM NAD+, 25 μM p53-382 acetylated peptide, compounds at 100 μM
T1 sequence (Q96EB6 1-747): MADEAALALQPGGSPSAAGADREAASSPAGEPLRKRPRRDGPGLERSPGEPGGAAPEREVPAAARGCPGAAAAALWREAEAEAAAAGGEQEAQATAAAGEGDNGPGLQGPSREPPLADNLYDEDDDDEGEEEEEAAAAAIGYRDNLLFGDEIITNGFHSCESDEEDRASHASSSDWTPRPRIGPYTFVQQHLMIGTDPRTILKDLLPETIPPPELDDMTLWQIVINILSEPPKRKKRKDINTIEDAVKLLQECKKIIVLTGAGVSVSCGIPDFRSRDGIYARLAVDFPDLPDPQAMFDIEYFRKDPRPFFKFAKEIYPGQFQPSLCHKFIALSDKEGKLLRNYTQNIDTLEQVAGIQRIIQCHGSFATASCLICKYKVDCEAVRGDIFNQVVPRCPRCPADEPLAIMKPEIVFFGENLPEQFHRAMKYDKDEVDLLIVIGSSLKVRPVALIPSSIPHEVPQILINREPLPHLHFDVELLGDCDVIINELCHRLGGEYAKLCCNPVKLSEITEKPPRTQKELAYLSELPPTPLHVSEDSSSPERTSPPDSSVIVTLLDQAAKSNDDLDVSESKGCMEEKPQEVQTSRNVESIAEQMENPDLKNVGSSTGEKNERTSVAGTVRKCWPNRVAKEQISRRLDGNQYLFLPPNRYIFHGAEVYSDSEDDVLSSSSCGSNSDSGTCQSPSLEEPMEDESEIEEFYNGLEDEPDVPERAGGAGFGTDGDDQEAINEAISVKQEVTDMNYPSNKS
From the text: Lines represent non-linear least-squares fits to the Michaelis-Menten equation. […] Lines represent non-linear least-squares fits to the Michaelis-Menten equation. […] Error bars are standard errors of the mean.
To identify compounds that modulate SIRT1 activity, a number of small molecule libraries were screened using a fluorescent deacetylation assay in 96-well plates^26. The substrate used in the assay was a fluorogenic peptide based on the sequence encompassing the p53-K382 acetylation site, a known target of SIRT1 in vivo^20,21,27. […] The small molecule libraries included analogues of nicotinamide, ε-acetyl lysine, NAD^+, nucleotides, nucleotide analogues and purinergic ligands.
His6-tagged recombinant SIRT1 and GST-tagged recombinant Sir2 were prepared as previously described^26. From 0.1 to 1 μg of SIRT1 and 1.5 μg of Sir2 were used per deacetylation assay (in 50 μl total reaction) as previously described^26.
Themed compound libraries (BIOMOL) were used for primary and secondary screening. Most polyphenol compounds were dissolved at 10 mM in dimethylsulfoxide (DMSO) on the day of the assay. For water soluble compounds and negative controls, 1% v/v DMSO was added to the assay. […] Unless otherwise indicated all initial rate measurements were means of three or more replicates, obtained with single incubation times, at which point 5% or less of the substrate initially present had been deacetylated. Calculation of net fluorescence increases included subtraction of a blank value, which in the case of Sir2 was obtained by omitting the enzyme from the reaction and in the case of SIRT1 by adding an inhibitor (200 μM suramin or 1 mM nicotinamide) to the reaction prior to the acetylated substrate. […] All error bars represent the standard error of the mean.

[1] = Solution stability from SIRT1 fold-stimulation of aged stock solutions; assay type: physicochemical; conditions: ethanol stock 2.5 mM, room temperature, nitrogen atmosphere
From the text: The fold-stimulation (ratio to control) obtained with a compound diluted from an aged stock solution was compared to an identical dilution from a stock solution freshly prepared from the solid compound. “t1/2” is defined as the time required for the SIRT1 fold-stimulation of the compound from the aged solution to decay to one-half of that obtained from a freshly prepared solution. […] Stocks were aged by storage at room temperature, in glass vials, under a nitrogen atmosphere.

C. elegans = C. elegans lifespan; assay type: in vivo; conditions: N2 worms, E. coli as food; untreated 100%
Experimental: Thus, the presence of resveratrol in the growth media of C. elegans extends their lifespan.
Bristol N2 (Caenorhabditis Genetics Center) was used as the wild-type strain. The sir-2.1 mutant strain was generated by backcrossing VC199 (sir-2.1(ok434)) to N2 four times. Cultures were grown on standard NGM media and maintained on E. coli strain OP50. For the lifespan assays, synchronized animals were transferred to treatment plates as young adults (2 d after hatching, day 0 of assay), and were transferred to fresh treatment plates every 2 days for the first 6 to 8 days of the assay. […] For some lifespan trials, heat-killed OP50 were used as a food source. OP50 cultures were heated to 65° C. for 30 minutes, then pelleted and resuspended in 1/10 volume in S Basal supplemented with 10 mM MgSO4. In all assays, worms were monitored daily for mortality by gently probing with a platinum pick. Assays were performed at 24° C. To assay worm feeding rates, worms at the indicated stages were placed on treatment plates (no FUdR) for 4-5 hours, then videoed for 1 minute using a Pixelink PL-662 camera. The frame rate was slowed and the pumping rate of the pharynx was counted. To assay fecundity, gravid hermaphrodites (5 per plate, raised from synchronized L1s on normal or treatment plates) were allowed to lay eggs on their respective media for 5 hours, and the total number of eggs was counted.

S. cerevisiae = assay: Yeast replicative lifespan; assay type: cell-based; conditions: 10 μM; 2% (w/v) glucose YPD; untreated 100%
Experimental: Average lifespan for wild type, 22.9 generations, quercetin, 23.4; piceatannol. […]
All yeast strains were grown at 30° C. in complete yeast extract/bactopeptone, 2.0% (w/v) glucose (YPD) medium except where stated otherwise. Calorie restriction was induced in 0.5% glucose. Synthetic complete (SC) medium consisted of 1.67% yeast nitrogen base, 2% glucose, 40 mg/litre each of auxotrophic markers. SIR2 was integrated in extra copy and disrupted as described^5. Other strains are described elsewhere^26. For cellular deacetylation assays, HeLa S3 cells were used. U20S osteosarcoma and human embryonic kidney (HEK 293) cells were cultured adherently in Dulbecco's Modified Eagle's Medium (DMEM) containing 10% fetal calf serum (FCS) with 1.0% glutamine and 1.0% penecillin/streptomycin. HEK 293 overexpressing dominant negative SIRT1 H363Y was a gift of R. Frye (U. Pittsburgh).
Lifespan measurements were performed using PSY316AT MATα as previously described^35. All compounds for lifespan analyses were dissolved in 95% ethanol and plates were dried and used within 24 hours. Prior to lifespan analysis, cells were pre-incubated on their respective media for at least 15 hours. Following transfer to a new plate, cells were equilibrated on the medium for a minimum of 4 hours prior to micro-manipulating them. At least 30 cells were examined per experiment and each experiment was performed at least twice. Statistical significance of lifespan differences was determined using the Wilcoxon rank sum test. Differences are stated to be significant when the confidence is higher than 95%.

CC(=O)Oc1cc(O)cc(/C=C/c2ccc(O)cc2)c1 [BML-221, 3,4′-Dihydroxy-5-acetoxy-trans-stilbene]
SIRT1 stimulating activity (in words) (recombinant human SIRT1): diminished in in vitro SIRT1 activating ability | solution stability relative to resveratrol [1]: strongly increased; also recorded: vast improvement in solution stability relative to resveratrol | % change in C. elegans lifespan relative to untreated organisms (100/500 μM) (C. elegans): >100% | % change in yeast replicative lifespan relative to untreated organisms (10 μM) (S. cerevisiae): 165%
